Measured values reported in ChEMBL document CHEMBL5370675, “Identification of HuR-RNA Interfering Compounds by Dynamic Combinatorial Chemistry and Fluorescence Polarization” (ACS Med Chem Lett, 2023).
Calls of active or inactive are those of the source. No cut-off for these calls is given here.

Experiments:
[1] = target: ELAV-like protein 1 (Homo sapiens) (UniProt Q15717); assay: Inhibition of HuR (unknown origin) assessed as reduction in protein-mRNA interaction at 0.5 to 100 uM preincubated for 1 hr followed by mRNA addition and measured after 1.5 hrs by fluorescence polarization assay; details: dose 0.5-100 µM, time 2.5 hrs
[2] = Retention time of the compound in acetate buffer by HPLC-UV analysis; type: physicochemical

ELAV-like protein 1 (Homo sapiens), sequence (Q15717 whole entry): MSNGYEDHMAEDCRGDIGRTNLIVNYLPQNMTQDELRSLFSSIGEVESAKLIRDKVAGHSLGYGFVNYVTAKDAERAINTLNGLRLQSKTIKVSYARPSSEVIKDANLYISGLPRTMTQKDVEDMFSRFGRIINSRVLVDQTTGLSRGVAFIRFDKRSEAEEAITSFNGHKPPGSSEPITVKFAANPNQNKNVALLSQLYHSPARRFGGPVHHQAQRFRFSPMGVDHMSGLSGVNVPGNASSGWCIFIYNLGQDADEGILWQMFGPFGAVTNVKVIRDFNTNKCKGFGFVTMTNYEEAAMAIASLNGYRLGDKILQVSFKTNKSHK

| SMILES | inhibition [1] | Retention_time [2] |
| --- | --- | --- |
| Cc1cccc(Cn2nc(C(C)(C)C)cc2C(=O)N/N=C/c2csc(Br)n2)c1 | Active | – |
| O=C(COc1ccc(Cl)cc1Cl)N/N=C/c1csc(Br)n1 | Active | 12.86 min |
| Cc1cccc(Cn2nc(C(C)(C)C)cc2C(=O)N/N=C/c2ccc3cn[nH]c3c2)c1 | Active | – |
